Source: US5663182A, “Antipsychotic method” (priority 1996, dated 1997)
Where a name gives a salt, the structure may show the parent alone.

Columns and labels:
muscarinic receptors = assay: 3H-oxotremorine-M binding assay; details: 3 nM 3H-oxotremorine-M, rat cerebral cortical membranes, 15 min 25° C.; read-out: Inhibition of 3H-Oxo
Method: Each compound was tested to determine the affinity of the compound for the muscarinic receptors using the following procedure.
For each in vitro binding, male Sprague-Dawley (Harlan Sprague-Dawley, Indianapolis, Ind.) rats weighing from about 100 to about 150 grams each were sacrificed by decapitation. The brains were quickly removed and the cerebral cortex were dissected from the brain. The cerebral cortex tissue was homogenized in 10 volumes of 0.32 M sucrose and […] about 10 minutes at about 1000 x g. The supernatant was centrifuged at about 12,000 x g for about 10 minutes and the resulting pellet was resuspended in 20 mM tris-Cl, pH 7.4. The resuspended pellet was centrifuged again for about 10 minutes at about 50,000 x g. The resulting homogenate was preincubated for about 10 minutes at about 25° C. and centrifuged again for about 10 minutes at about 50,000 x g. The pellet was resuspended at 1 gram of pellet per 3 ml of buffer and frozen at about -80° C. until used.
The aforementioned homogenates mixture was incubated for about 15 minutes at about 25° C. and then the homogenates were filtered through glass filters (Whatman, GF/C) with vacuum. The filters were washed 3 times with about 2 ml of cold tris-Cl buffer, and placed in scintillation vials containing about 10 ml of scintillation fluid (Ready Protein+, Beckman, Fullerton, Calif.). Radioactivity trapped on the filters was determined by liquid scintillation spectrometry. Nonspecific binding was determined using 1 μM atropine. […] DeLean, A. et al. Am.

Rats = assay: Conditioned avoidance behavior in rats; format: in vivo, rat; details: screening dose 3.0 mg/kg s.c. 30 min before session
Text: In a conditioned avoidance test, animals learn to respond during a conditioned stimulus in order to avoid mild shock presentation. A response during the conditioned stimulus is termed an avoidance respone, a response during shock is termed an escape response; a response failure is when the animal fails to respond during either the conditioned stimlus or the shock presentation and is indicative of motor impairment. […] Antipsychotic drugs decrease the percentage of avoidance responses without interfering with the ability of the animal to respond since the animals do emit escape responses. The percentage of response failures is considered a measure of motor impairment.
Rats were required to press a response lever in an experimental chamber in order to avoid or escape foot-shock. Each experimental session consisted of 50 trials. During each trial, the chamber was illuminated and a tone presented for a maximum of 10 sec. A response during the tone immediately terminated the tone and the houselight, ending the trial. In the absence of a response during the tone alone, tone+foot-shock (2.0 mA) was presented for a maximum of 10 sec. A response during shock presentation immediately terminated the shock, the tone and the houselight, ending the trial.
For drug screening, a dose of 3.0 mg/kg was administered s.c. 30 min before the start of the experimental session.

| Structure (SMILES) | IC50 (muscarinic receptors) [nM] | Conditioned Avoidance % Avoidance Responses (Rats) [%] | Conditioned Avoidance % Avoidance Responses (Rats; 3 mg/kg) [%] |
| --- | --- | --- | --- |
| CCOc1nsnc1[C@H]1CN2CCC[C@H]1C2 (relative stereo) [Compound 19, Exo-6-(3-ethoxy-1,2,5-thiadiazol-4-yl)-1-azabicyclo[3.2.1]octane oxalate] | 1.2 | 73 | – |
| CCCCCCSc1nsnc1[C@H]1CN2CCC[C@H]1C2 (relative stereo) [Compound 29, Exo-6-(3-hexylthio-1,2,5-thiadiazol-4-yl)-1-azabicyclo[3.2.1]octane oxalate] | 1.2 | 29 | – |
| CCCCSc1nsnc1[C@H]1CN2CCC[C@H]1C2 (relative stereo) [Compound 30, Exo-6-(3-butylthio-1,2,5-thiadiazol-4-yl)-1-azabicyclo[3.2.1]octane oxalate] | 0.4 | 32 | – |
| CCCCCSc1nsnc1[C@H]1CN2CCC[C@H]1C2 (relative stereo) [Compound 31, Exo-6-(3-pentylthio-1,2,5-thiadiazol-4-yl)-1-azabicyclo[3.2.1]octane oxalate] | 1.8 | 1 | – |
| CCSc1nsnc1[C@H]1CN2CCC[C@H]1C2 (relative stereo) [Compound 32, Exo-6-(3-ethylthio-1,2,5-thiadiazol-4-yl)-1-azabicyclo[3.2.1]octane oxalate] | 1.3 | 46 | – |
| CCCSc1nsnc1[C@H]1CN2CCC[C@H]1C2 (relative stereo) [Compound 58, Exo-6-(3-propylthio-1,2,5-thiadiazol-4-yl)-1-azabicyclo[3.2.1]octane oxalate] | 0.8 | 41 | – |
| CCCCCOc1nsnc1[C@H]1CN2CCC[C@H]1C2 (relative stereo) [Compound 59, Exo-6-(3-pentyloxy-1,2,5-thiadiazol-4-yl)-1-azabicyclo[3.2.1]octane oxalate] | 1 | 12 | – |
| CSc1nsnc1[C@H]1CN2CCC[C@H]1C2 (relative stereo) [Compound 74, Exo-6-(3-methylthio-1,2,5-thiadiazol-4-yl)-1-azabicyclo[3.2.1]octane oxalate] | 1.4 | 22 | – |
| CC(C)CCCSc1nsnc1[C@H]1CN2CCC[C@H]1C2 (relative stereo) [Compound 76, Exo-6-(3-isohexylthio-1,2,5-thiadiazol-4-yl)-1-azabicyclo[3.2.1]octane oxalate] | 7.7 | 28 | – |
| CC(C)CCSc1nsnc1[C@H]1CN2CCC[C@H]1C2 (relative stereo) [Compound 77, Exo-6-(3-isopentylthio-1,2,5-thiadiazol-4-yl)-1-azabicyclo[3.2.1]octane] | 2.7 | 85 | – |
| N#Cc1ccc(CSc2nsnc2[C@H]2CN3CCC[C@H]2C3)cc1 (relative stereo) [Compound 82, Exo-6-(3-(4-cyanobenzylthio)-1,2,5-thiadiazol-4-yl)-1-azabicyclo[3.2.1]octane oxalate] | 1.3 | 24 | – |
| CCCOc1nsnc1[C@H]1CN2CCC[C@H]1C2 (relative stereo) [Compound 119, Exo-6-(3-propoxy-1,2,5-thiadiazol-4-yl)-1-azabicyclo[3.2.1]octane oxalate] | 0.9 | 29 | – |
| CCCCOc1nsnc1[C@H]1CN2CCC[C@H]1C2 (relative stereo) [Compound 120, Exo-6-(3-butoxy-1,2,5-thiadiazol-4-yl)-1-azabicyclo[3.2.1]octane oxalate] | 0.9 | 27 | – |
| CCCCCCOc1nsnc1[C@H]1CN2CCC[C@H]1C2 (relative stereo) [Compound 122, Exo-6-(3-hexyloxy-1,2,5-thiadiazol-4-yl)-1-azabicyclo[3.2.1]octane oxalate] | 2.1 | 1 | – |
| c1ccc(OCCSc2nsnc2[C@H]2CN3CCC[C@H]2C3)cc1 (relative stereo) [Compound 133, Exo-6-(3-(2-phenoxyethylthio)-1,2,5-thiadiazol-4-yl)-1-azabicyclo[3.2.1]octane oxalate] | 1.3 | 1 | – |
| CCCCSc1nsnc1C1CN2CCC1CC2.O=C(O)C(O)C(O)C(=O)O (single isomer, unassigned) [Compound 56, (+) 3-(3-Butylthio-1,2,5-thiadiazol-4-yl)-1-azabicyclo[2.2.2]octane (-)D-tartrate] | 0.4 | 6 | – |
| CCCCSc1nsnc1C1CN2CCCC1C2 (single isomer, unassigned) [Compound 111, (-)-Exo-6-(3-butylthio-1,2,5-thiadiazol-4-yl)-1-azabicyclo[3.2.1]octane (+) L-tartrate] | 1 | – | 8 |
| CCCCSc1nsnc1C1CN2CCCC1C2 (single isomer, unassigned) [Compound 112, (+)-Exo-6-(3-butylthio-1,2,5-thiadiazol-4-yl)-1-azabicyclo[3.2.1]octane (-) D-tartrate] | 0.6 | – | 2 |
| CCCSc1nsnc1C1CN2CCCC1C2 (single isomer, unassigned) [Compound 114, (+)-Exo-6-(3-propylthio-1,2,5-thiadiazol-4-yl)-1-azabicyclo[3.2.1]octane (-) D-tartrate] | 0.45 | – | 39 |
| CCCSc1nsnc1C1CN2CCCC1C2 (single isomer, unassigned; (+)) [Compound 113, (+)-Exo-6-(3-propylthio-1,2,5-thiadiazol-4-yl)-1-azabicyclo[3.2.1]octane (+) L-tartrate] | 0.8 | – | 19 |
| FC(F)(F)CCCSc1nsnc1C1CN2CCCC1C2 (single isomer, unassigned; (+)) [Compound 167, (+)-Exo-6-(3-(4,4,4-trifluorobutylthio)-1,2,5-thiadiazol-4-yl)-1-azabicyclo-[3.2.1]octane oxalate] | 0.76 | – | 56 |
| FC(F)(F)CCCSc1nsnc1C1CN2CCCC1C2 (single isomer, unassigned; (-)) [Compound 130, (-)-Exo-6-(3-(4,4,4-trifluoro-1-butylthio)-1,2,5-thiadiazol-4-yl)-1-azabicyclo[3.2.1]octane oxalate] | 1.8 | – | 43 |
| CCOc1nsnc1C1CN2CCC1CC2.O=C(O)/C=C/C(=O)O (stereo not shown) [Compound 9, 3-(3-Ethoxy-1,2,5-thiadiazol-4-yl)-1-azabicyclo[2.2.2]octane fumarate] | 2.1 | 65 | – |
| CCCCCCOc1nsnc1C1CN2CCC1CC2.O=C(O)/C=C/C(=O)O (stereo not shown) [Compound 11, 3-(3-Hexyloxy-1,2,5-thiadiazol-4-yl)-1-azabicyclo[2.2.2]octane fumarate] | 6 | 11 | – |
| CCCCSc1nsnc1C1CN2CCC1CC2.O=C(O)/C=C/C(=O)O (stereo not shown) [Compound 13, 3-(3-Butylthio-1,2,5-thiadiazol-4-yl)-1-azabicyclo[2.2.2]octane fumarate] | 1.9 | 18 | – |
| CCCCOc1nsnc1C1CN2CCC1CC2.O=C(O)C(=O)O (stereo not shown) [Compound 46, 3-(3-Butoxy-1,2,5-thiadiazol-4-yl)-1-azabicyclo[2.2.2]octane oxalate] | 1.6 | 30 | – |
| CCSc1nsnc1C1CN2CCC1CC2.O=C(O)C(=O)O (stereo not shown) [Compound 52, 3-(3-Ethylthio-1,2,5-thiadiazol-4-yl)-1-azabicyclo[2.2.2]octane oxalate] | 1.8 | 63 | – |
| CCCSc1nsnc1C1CN2CCC1CC2.O=C(O)C(=O)O (stereo not shown) [Compound 53, 3-(3-Propylthio-1,2,5-thiadiazol-4-yl)-1-azabicyclo[2.2.2]octane oxalate] | 0.9 | 41 | – |
| O=C(O)/C=C/C(=O)O.c1ccc(OCCSc2nsnc2C2CN3CCC2CC3)cc1 (stereo not shown) [Compound 102, 3-(3-(2-Phenoxyethylthio)-1,2,5-thiadiazol-4-yl)-1-azabicyclo[2.2.2]octane fumarate] | 4.5 | 3 | – |
